# Experiments:
# [1] = test system: promoter region of the human calcitonin gene (luciferase reporter, C1-3 cells); assay: Calcitonin/Luciferase Reporter Gene Expression Assay; conditions: Homo sapiens, C13, 12 h; for fold induction at 30 µM: read-out: TAR (transcription activation ratio)
# Experimental: This assay was used to determine the ability of a compound to stimulate transcription of a luciferase reporter gene regulated by 3 kb of the promoter region of the human calcitonin gene.
# C1-3 cells were plated at a density of 6,500-7,500 cells per well in a 96-plate microtiter plate. Twenty-four to forty-eight hours later, compounds were added to the wells in triplicate. Compounds were tested at a concentration of 10 μg/mL in 0.5% DMSO.
# The production of light is measured on a luminometer.
# TAR Ratio: Stimulation of calcitonin promoter-dependent transcription is expressed as a ratio of luciferase activity (LUCI) in the presence of test compound compared to the LUCI activity in the untreated control: [formula]
# [2] = test system: C1-3 cell line (calcitonin secretion); assay: Calcitonin Secretion/RIA Assay; type: cell-based, human; conditions: Homo sapiens, C13, ratio of calcitonin secretion vs untreated control, active if >2.5
# Experimental: Cell Line: C1-3 (Parent Cell Line: TT-medullary thyroid carcinoma),
# Reagent A--(Anti-Calcitonin)
# Regent C--(Anti-Goat Precipitant)
# Regent D--(Zero Standard).
# Reagents E-I--(Calcitonin Standards)
# Reagents J-K (Calcitonin Controls: Level and Level 2)
# 1. Glass tubes were labeled to include Total Count (TC), Nonspecific Binding (NSB), Maximum Binding (Bo), Standards, Controls and Patient Sera in duplicate.
# 2. […] of Standard Zero (Reagent D) was added to tubes 3 through 6 (NSB and Bo).
# 3. […] of Standards* (Reagents E-1) was added to tubes 7-16 as follows:
# 4. […] of Patient Serum 1 was added to tubes 21 and 22, Patient Serum 2 was added to tubes 23 and 24, etc.
# 5. […] of Reagent L (NSB Buffer) was added to tubes 3 and 4.
# 6. […] of Reagent A (Anti-Calcitonin) was added to all tubes except tubes 1 & 2 (TC) and tube 3 & 4 (NSB). All tubes were vortexed, covered with parafilm or foil and incubated 44±6 hours at 2-8° C.
# 7. […] All tubes were vortexed, covered with parafilm or foil and incubated 22±3 hours at 2-8° C.
# 8. Reagent C (Anti-Goat Precipitant) was mixed gently but thoroughly by inverting the vial several times before use. 1 mL Reagent C was added to all tubes except 1 and 2 (TC). Tubes were vortexed and incubated 20 minutes at room temperature.
# 9. All tubes were centrifuged at 1300-1500×g for 15 minutes at 2-8° C.
# 10. Supernatant was decanted immediately after centrifugation taking care to leave the precipitate intact.
# 11. Tubes were counted 4 minutes or longer.
# Secretion Ratio: Stimulation of calcitonin secretion is expressed as a ratio of secretion activity in the presence of test compound compared to the secretion activity in the untreated control: [formula]
# PDE-IV = assay: Inhibition of Phosphodiesterase IV (PDE-IV) isolated from human U937 cells; type: biochemical; conditions: U937 cell PDE-IV, 1 μM [3H]-cAMP, 37° C., test compound 0.001 μM to 10 μM
# Experimental: This assay was used to biochemically assess the ability of a test compound to inhibit PDE-IV isolated from a U937 cell line, where PDE-IV refers to the cGMP-insensitive, cAMP-selective PDE.
# Cell Culture: U937 cells were grown in RPMI 1640 medium supplemented with 10% heat-inactivated fetal calf serum and Penicillin/Streptomycin (100 units/100 μg per mL) in a humidified 5% CO2 atmosphere at 37° C. Starter cells were maintained in continuous logarithmic growth by seeding them in 75 cm^2 vented tissue culture flasks at a concentration of 3×10^4 cells/mL and passing them every 3-4 days when the cells reached approximately 8×10^5 cells/mL. For experiments, 3-4 day starter cells were seeded in 225 cm^2 flasks at 1×10^5 cells/mL and harvested 3-4 days later at approx. 6×10^5 cells/mL.
# Isolation of PDE-IV: U937 cells were activated with 10 μM dibutyryl cAMP for a period of 4 hours (to up-regulate PDE-IV) and then harvested by centrifugation at 1200×g for 10 min in 250 mL conical centrifuge tubes. The pellet from each 200 mL flask was resuspended in 5 mL buffer A [10 mM Tris-HCl, 5 mM MgCl2, 4 mM EGTA, 5 mM 2-mercaptoethanol, 1 μM leupeptin, 1 μM pepstatin A, and 5 μM phenylmethyl sulfonyl fluoride (PMSF) (pH 7.8)], and the cells were lysed using 3 cycles of freezing (3 min in dry ice/acetone) followed by thawing (warm water). […] To determine which families of PDEs were present, fractions may be assayed for hydrolytic activity with 1 μM [^3 H]-cAMP or 1 μM [^3 H]-cGMP. Additionally, 1 μM [^3 H]-cAMP assays were conducted in the presence of 10 μM rolipram, 10 μM cGMP, or calmodulin (1 unit/0.4 mL plus 10 μM CaCl2).
# When prepared in this manner, approximately 80% of total cAMP PDE activity is eluted by Buffer B containing 0.7 M sodium acetate. This PDE activity consists of>90% PDE-IV (as evidenced by its susceptibility to inhibition by rolipram.
# PDE assay: PDE activity was measured using a modification of the radioisotope procedure previously described by Thompson et al. (Thompson, W. J., Terasaki, W. L., Epstein, P. M. and Strada, S. J. Adv, Cyclic Nucleotide Res. 1979, 10, 69). Reaction mixtures (0.4 mL) contain 40 mM Tris-HCl (pH 7.8), 4 mM 2-mercaptoethanol, 5 mM MgCl2, 0.1 μM leupeptin, 0.1 μM pepstatin A, 0.1 μM PMSF, 1 μM [3H]-cAMP or 1 μM [^3 H]-cGMP (~200,000 DPM), and enzyme to initiate the reaction. ^3 H-cAMP substrate was prepared as follows: A stock solution of ^3 H-cyclic nucleotide (1000 μCi/mL) was diluted 1:10 in 50% EtOH. 200 μl of this diluted stock solution was added to a cold (unlabeled) cyclic nucleotide solution, made at a concentration of 4 μM. 100 μl of this solution was used per assay tube to achieve a final concentration of 1 μM cyclic nucleotide per assay tube (200,000 DPM). Enzyme activity was determined at 37° C. Reactions were terminated by boiling, incubating with snake venom, and cooling as previously described (Thompson et al., 1979). The reaction mixture was applied to a (0.8×8.5 cm) column containing 0.4 g Dowex I-X8 affinity resin; reaction tubes were rinsed with 0.5 mL of methanol; and this, along with an extra 1 mL of methanol, was applied to the column to elute the ^3 H-reaction products. After all liquid has passed through the column, the column was plunged with a 12 cc syringe plunger. Each column's eluate was collected in a 20 mL scintillation vial containing 10 mL aquasol-2 and counted by scintillation spectrophotometry. [^3 H]-adenosine or [^3 H]-guanosine recovery was corrected for background DPM determined in the absence of enzyme. The amount of enzyme and duration of assay were adjusted to ensure that less than 25% of the substrate was consumed under these conditions.
# Measurements: Inhibition by a test compound was measured as a percent reduction of total PDE activity, and calculated as follows: [formula] where A is the PDE activity (mean DPM-background DPM) in the presence of test compound, and B is the total PDE-IV activity (mean DPM-background DPM) in the absence of test compound. […]
Compound,fold induction at 30 µM [1],fold induction at 30 µM [2],% Inhibition of PDE IV (normalized to rolipram) (PDE-IV) [%],fold induction at 1000 µM ([1]; read-out: fold induction of luciferase (control stimulation))
"CCCCn1c(=O)c2cn(S(=O)(=O)CCCCl)nc2n(CCCC)c1=O [Example 13, 5,7-Dibutyl-2-(3-chloro-propane-1-sulfonyl)-2,7-dihydro-pyrazolo[3,4-d]pyrimidine-4,6-dione]",1.91,2.71,34,–
"CCCCn1c(=O)n(C)c(=O)c2nn(S(=O)(=O)CCCCl)cc21 [Example 18, 4-Butyl-2-(3-chloro-propane-1-sulfonyl)-6-methyl-2,4-dihydro-pyrazolo[4,3-d]pyrimidine-5,7-dione]",1.1,1.38,34,–
"CCCCn1c(=O)c2cn(S(=O)(=O)c3ccc(C(F)(F)F)cc3)nc2n(CCCC)c1=O [Example 16, 5,7-Dibutyl-2-(4-trifluoromethyl-benzenesulfonyl)-2,7-dihydro-pyrazolo[3,4-d]pyrimidine-4,6-dione]",2.61,3.86,62,–
"CCCCn1c(=O)c2nn(S(=O)(=O)CCCCl)cc2n(CCCC)c1=O [Example 1, 4,6-Dibutyl-3-chloropropanesulfonyl-2,4-dihydro-pyrazolo[4,3-d]pyrimidine-5,7-dione]",1.34,4.35,–,–
"CCCCn1c(=O)c2cn(S(C)(=O)=O)nc2n(CCCC)c1=O [Example 17, 5,7-Dibutyl-2-methanesulfonyl-2,7-dihydro-pyrazolo[3,4-d]pyrimidine-4,6-dione]",1.95,3.93,17,–
"CCCCn1c(=O)c2nn(S(=O)(=O)CCCCl)cc2n(CCC(C)C)c1=O [Example 20, 6-Butyl-2-(3-chloro-propane-1-sulfonyl)-4-(3-methyl-butyl)-2,4-dihydro-pyrazolo[4,3-d]pyrimidine-5,7-dione]",1.57,2.25,42,–
"Cn1c(=O)c2cn(S(=O)(=O)CCCCl)nc2n(C)c1=O [Example 21, 2-(3-Chloro-propane-1-sulfonyl)-5,7-dimethyl-2,7-dihydro-pyrazolo[3,4-d]pyrimidine-4,6-dione]",1.2,1.02,68,–
"CCCCn1c(=O)c2nn(S(=O)(=O)c3cccc4cccnc34)cc2n(CCCC)c1=O [Example 12, 4,6-Dibutyl-2-(quinoline-8-sulfonyl)-2,4-dihydro-pyrazolo[4,3-d]pyrimidine-5,7-dione]",2.22,3.83,41,–
"CCCCn1c(=O)c2nn(S(=O)(=O)Cc3ccccc3)cc2n(CCCC)c1=O [Example 2, 4,6-Dibutyl-2-phenylmethanesulfonyl-2,4-dihydro-pyrazolo[4,3-d]pyrimidine-5,7-dione]",1.51,2.55,35,–
"CCCCn1c(=O)c2cn(S(=O)(=O)c3ccc(OC(F)(F)F)cc3)nc2n(CCCC)c1=O [Example 14, 5,7-Dibutyl-2-(4-trifluoromethoxy-benzenesulfonyl)-2,7-dihydro-pyrazolo[3,4-d]pyrimidine-4,6-dione]",2.22,4.29,92,–
"CCCCn1c(=O)c2nn(S(=O)(=O)c3cccc(C(F)(F)F)c3)cc2n(CCCC)c1=O [Example 3, 4,6-Dibutyl-2-(3-trifluoromethyl-benzenesulfonyl)-2,4-dihydro-pyrazolo[4,3-d]pyrimidine-5,7-dione]",1.79,3.79,68,–
"Nc1ncnc2c1nc(Sc1ccc(Cl)cc1)n2[C@@H]1O[C@@H]2COP(=O)(O)O[C@H]2[C@H]1O [Example 8-CPT-cAMP, 8-CPT-cAMP, reference compound]",–,–,–,2 to 3

# — patent US6133273A, “Pyrazolopyrimidine-2,4-dione sulfonamides” (American Home Products Corporation, priority 1999, dated 2000)
